What was measured:
[1] = biological target: A2A (h) (Homo sapiens, UniProt P29274); assay: competitive radioligand binding assay, A2A (h) (agonist radioligand)
[2] = biological target: β2 (h) (Homo sapiens, UniProt P07550); assay: competitive radioligand binding assay, β2 (h) (agonist radioligand)
[3] = biological target: AT1 (h) (Homo sapiens, UniProt P30556); assay: competitive radioligand binding assay, AT1 (h) (antagonist radioligand)
[4] = biological target: AT2 (h) (Homo sapiens, UniProt P50052); assay: competitive radioligand binding assay, AT2 (h) (agonist radioligand)
[5] = biological target: CB2 (h) (Homo sapiens, UniProt P34972); assay: competitive radioligand binding assay, CB2 (h) (agonist radioligand)
[6] = biological target: CCK2 (CCKB) (h) (Homo sapiens, UniProt P32239); assay: competitive radioligand binding assay, CCK2 (CCKB) (h) (agonist radioligand)
[7] = biological target: D4.4 (h) (Homo sapiens, UniProt P21917); assay: competitive radioligand binding assay, D4.4 (h) (antagonist radioligand)
[8] = test system: NMDA; assay: competitive radioligand binding assay, NMDA (antagonist radioligand); conditions: 10 μM
[9] = test system: I2; assay: competitive radioligand binding assay, I2 (antagonist radioligand); conditions: 10 μM
[10] = biological target: BLT1 (LTB4) (h) (Homo sapiens, UniProt Q15722); assay: competitive radioligand binding assay, BLT1 (LTB4) (h) (agonist radioligand)
[11] = test system: M (non0selective); assay: competitive radioligand binding assay, M (non0selective) (antagonist radioligand); conditions: 10 μM
[12] = test system: opioid (non-selective); assay: competitive radioligand binding assay, opioid (non-selective) (antagonist radioligand); conditions: 10 μM
[13] = biological target: PPARγ (h) (Homo sapiens, UniProt P37231); assay: competitive radioligand binding assay, PPARγ (h) (agonist radioligand)
[14] = test system: P2X; assay: competitive radioligand binding assay, P2X (agonist radioligand); conditions: 10 μM
[15] = test system: sigma (non-selective) (h); assay: competitive radioligand binding assay, sigma (non-selective) (h) (agonist radioligand); design: species or system human; conditions: 10 μM
[16] = test system: Cl− channel (GABA-gated); assay: competitive radioligand binding assay, Cl− channel (GABA-gated) (antagonist radioligand); conditions: 10 μM
[17] = biological target: dopamine transporter (h) (Homo sapiens, UniProt Q01959); assay: competitive radioligand binding assay, dopamine transporter (h) (antagonist radioligand)
[18] = biological target: T1, androgen receptors (Homo sapiens, UniProt P10275, T878A); assay: cell-based; assay type: cell-based
T1 construct: host or cells: LNCaP
T1 sequence (P10275 1-920 T878A): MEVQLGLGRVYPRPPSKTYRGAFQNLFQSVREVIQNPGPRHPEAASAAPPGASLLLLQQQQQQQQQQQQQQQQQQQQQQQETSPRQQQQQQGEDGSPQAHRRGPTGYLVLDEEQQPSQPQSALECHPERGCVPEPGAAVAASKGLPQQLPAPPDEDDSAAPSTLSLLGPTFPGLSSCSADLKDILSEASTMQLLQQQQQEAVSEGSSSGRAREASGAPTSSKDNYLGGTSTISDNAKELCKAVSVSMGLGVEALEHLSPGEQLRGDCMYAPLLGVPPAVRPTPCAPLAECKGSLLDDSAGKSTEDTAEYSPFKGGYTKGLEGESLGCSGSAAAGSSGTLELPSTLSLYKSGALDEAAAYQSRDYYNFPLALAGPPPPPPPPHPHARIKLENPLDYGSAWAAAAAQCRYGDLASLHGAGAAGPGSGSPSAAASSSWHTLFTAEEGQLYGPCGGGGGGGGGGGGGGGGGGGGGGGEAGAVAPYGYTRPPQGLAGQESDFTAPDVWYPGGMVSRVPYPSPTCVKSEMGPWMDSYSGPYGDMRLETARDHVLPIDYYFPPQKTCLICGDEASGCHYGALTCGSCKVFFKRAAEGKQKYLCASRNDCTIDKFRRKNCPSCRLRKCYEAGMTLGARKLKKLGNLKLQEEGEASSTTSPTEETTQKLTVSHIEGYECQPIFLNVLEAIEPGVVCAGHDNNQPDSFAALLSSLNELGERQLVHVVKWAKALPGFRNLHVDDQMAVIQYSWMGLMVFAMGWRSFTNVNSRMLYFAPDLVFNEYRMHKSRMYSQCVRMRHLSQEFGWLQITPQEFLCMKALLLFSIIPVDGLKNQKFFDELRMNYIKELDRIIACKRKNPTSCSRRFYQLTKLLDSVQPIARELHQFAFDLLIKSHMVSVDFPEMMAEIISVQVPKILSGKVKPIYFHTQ
Procedure: The expression of PSA was measured in the culture medium 24 hours thereafter (FIG. 1). […] The LnCAP cells were cultured for a further 5 days and the number of viable cells was then calculated.
FIG. 1. Inhibition of DHT-stimulated PSA expression in LnCAP cells.
These cells are sensitive towards 5-a-dihydrotestosterone (DHT) and in the presence thereof produce cancer markers (PSA). […] Before the experiment, the cells were washed and suspended in the same medium, in which, however, a serum treated with charcoal for removal of hormone traces was used instead of calf serum. The cells (10 000 in total) were embedded into the wells of 96-well plates at 100 μl per well and left for 4 days in an incubator at 37° C. […] The cells were incubated for a further 5 days under the same conditions. Then, samples of the supracellular medium were taken and analyzed for PSA. The test was carried out according to the protocol recommended by the manufacturer of the kit for PSA measurement (Alpha Diagnostic International, USA). After wetting the wells containing PSA antibodies attached to their bottoms, 25 μl of test compounds and 100 μl of PSA antibodies pre-conjugated to horseradish peroxidase were added successively to each well. Following a 30-minute incubation at room temperature, the content of each well was removed, the wells were washed several times, and 100 μl of a peroxidase chromogenic substrate was then added to each well. […] Based on data about the dependence of DHT-related reduction of PSA synthesis on the concentration of test compounds, dose-response curves were plotted to determine IC50 values. Said values were used for calculating apparent inhibition constants (Ki) for compounds of general formula I according to Cheng-Prusoff equation. [Cheng, Y., Prusoff, W. H. “Relationship between the inhibition constant (Ki) and the concentration of inhibitor which causes 50 percent inhibition (IC50) of an enzymatic reaction”. Biochem Pharmacol.

[19] = biological target: T2, rat AR ligand-binding domain (Rattus norvegicus, UniProt P15207); assay: Competitive-binding assay vs AR ligand Fluormone (PolarScreen Androgen Receptor Competitor Assay, fluorescence polarization)
T2 construct: purchased Invitrogen PV4293
Procedure: Binding to rat AR ligand-binding domain was measured in competition with fluorescently labeled AR ligand Fluormone™ using a commercial assay kit and fluorescence polarization as a read-out.
FIG. 3. Competitive-binding assay vs AR ligand Fluormone™ (PolarScreen™ Androgen Receptor Competitor Assay, Invitrogen, cat. #PV4293).

T2 sequence (P15207 651-882 limits assumed): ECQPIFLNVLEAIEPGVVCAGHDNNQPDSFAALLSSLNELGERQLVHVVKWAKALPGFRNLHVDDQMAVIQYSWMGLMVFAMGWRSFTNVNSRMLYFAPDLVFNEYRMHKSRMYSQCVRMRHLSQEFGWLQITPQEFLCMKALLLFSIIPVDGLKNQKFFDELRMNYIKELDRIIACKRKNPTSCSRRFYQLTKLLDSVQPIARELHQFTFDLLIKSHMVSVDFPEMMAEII
BLT1 (LTB4) (h), sequence (Q15722 whole entry): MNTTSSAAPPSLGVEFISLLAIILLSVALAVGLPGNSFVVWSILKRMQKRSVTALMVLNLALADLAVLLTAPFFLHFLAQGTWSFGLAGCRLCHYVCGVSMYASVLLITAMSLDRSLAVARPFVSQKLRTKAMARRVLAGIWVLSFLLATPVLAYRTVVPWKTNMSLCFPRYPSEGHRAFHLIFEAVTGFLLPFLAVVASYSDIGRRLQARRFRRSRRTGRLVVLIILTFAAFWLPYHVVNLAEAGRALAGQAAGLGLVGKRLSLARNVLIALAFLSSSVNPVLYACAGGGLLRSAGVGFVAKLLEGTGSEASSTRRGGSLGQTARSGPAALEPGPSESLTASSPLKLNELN
CB2 (h), sequence (P34972 whole entry): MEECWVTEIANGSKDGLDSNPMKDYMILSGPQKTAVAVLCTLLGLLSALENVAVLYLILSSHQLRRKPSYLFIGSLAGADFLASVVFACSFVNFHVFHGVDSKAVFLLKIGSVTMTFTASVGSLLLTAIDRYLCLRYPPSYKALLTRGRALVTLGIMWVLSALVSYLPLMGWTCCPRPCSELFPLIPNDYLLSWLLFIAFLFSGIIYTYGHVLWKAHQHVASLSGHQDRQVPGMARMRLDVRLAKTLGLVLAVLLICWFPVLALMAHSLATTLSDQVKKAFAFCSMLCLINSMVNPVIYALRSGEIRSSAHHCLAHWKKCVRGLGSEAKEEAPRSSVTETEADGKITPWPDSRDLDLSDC
AT2 (h), sequence (P50052 whole entry): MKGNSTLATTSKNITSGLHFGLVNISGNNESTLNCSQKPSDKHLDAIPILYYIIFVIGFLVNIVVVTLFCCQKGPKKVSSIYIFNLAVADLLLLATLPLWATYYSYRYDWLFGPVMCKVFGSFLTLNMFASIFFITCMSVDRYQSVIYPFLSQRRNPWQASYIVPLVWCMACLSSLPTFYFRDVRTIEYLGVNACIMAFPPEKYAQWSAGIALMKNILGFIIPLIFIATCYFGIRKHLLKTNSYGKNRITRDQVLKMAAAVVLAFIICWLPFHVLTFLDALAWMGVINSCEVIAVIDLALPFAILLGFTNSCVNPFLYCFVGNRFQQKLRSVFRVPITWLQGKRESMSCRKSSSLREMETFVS
D4.4 (h), sequence (P21917 whole entry): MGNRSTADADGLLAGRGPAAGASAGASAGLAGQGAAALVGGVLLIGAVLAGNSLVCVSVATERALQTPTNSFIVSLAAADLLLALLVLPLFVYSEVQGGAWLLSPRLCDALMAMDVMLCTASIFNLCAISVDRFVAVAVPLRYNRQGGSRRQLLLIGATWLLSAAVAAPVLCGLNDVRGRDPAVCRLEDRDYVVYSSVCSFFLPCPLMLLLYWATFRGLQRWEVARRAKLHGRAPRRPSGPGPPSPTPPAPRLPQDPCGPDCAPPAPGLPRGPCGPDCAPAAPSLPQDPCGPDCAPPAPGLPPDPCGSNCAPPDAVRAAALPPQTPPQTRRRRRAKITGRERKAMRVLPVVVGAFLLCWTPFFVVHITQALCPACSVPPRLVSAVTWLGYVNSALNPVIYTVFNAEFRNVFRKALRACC
PPARγ (h), sequence (P37231 whole entry): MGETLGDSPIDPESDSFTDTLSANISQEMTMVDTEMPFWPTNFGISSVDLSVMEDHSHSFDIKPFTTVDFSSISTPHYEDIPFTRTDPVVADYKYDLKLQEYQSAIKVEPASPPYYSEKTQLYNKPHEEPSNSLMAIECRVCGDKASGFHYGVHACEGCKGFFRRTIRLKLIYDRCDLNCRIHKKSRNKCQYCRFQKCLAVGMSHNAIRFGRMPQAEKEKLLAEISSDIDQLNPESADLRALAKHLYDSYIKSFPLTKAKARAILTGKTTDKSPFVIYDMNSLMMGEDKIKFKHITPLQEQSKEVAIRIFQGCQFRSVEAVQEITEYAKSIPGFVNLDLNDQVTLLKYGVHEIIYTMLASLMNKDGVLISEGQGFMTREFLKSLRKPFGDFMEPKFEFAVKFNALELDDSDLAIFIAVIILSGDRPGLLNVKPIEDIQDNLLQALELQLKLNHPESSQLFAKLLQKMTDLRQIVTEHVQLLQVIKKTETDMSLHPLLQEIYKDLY
dopamine transporter (h), sequence (Q01959 whole entry): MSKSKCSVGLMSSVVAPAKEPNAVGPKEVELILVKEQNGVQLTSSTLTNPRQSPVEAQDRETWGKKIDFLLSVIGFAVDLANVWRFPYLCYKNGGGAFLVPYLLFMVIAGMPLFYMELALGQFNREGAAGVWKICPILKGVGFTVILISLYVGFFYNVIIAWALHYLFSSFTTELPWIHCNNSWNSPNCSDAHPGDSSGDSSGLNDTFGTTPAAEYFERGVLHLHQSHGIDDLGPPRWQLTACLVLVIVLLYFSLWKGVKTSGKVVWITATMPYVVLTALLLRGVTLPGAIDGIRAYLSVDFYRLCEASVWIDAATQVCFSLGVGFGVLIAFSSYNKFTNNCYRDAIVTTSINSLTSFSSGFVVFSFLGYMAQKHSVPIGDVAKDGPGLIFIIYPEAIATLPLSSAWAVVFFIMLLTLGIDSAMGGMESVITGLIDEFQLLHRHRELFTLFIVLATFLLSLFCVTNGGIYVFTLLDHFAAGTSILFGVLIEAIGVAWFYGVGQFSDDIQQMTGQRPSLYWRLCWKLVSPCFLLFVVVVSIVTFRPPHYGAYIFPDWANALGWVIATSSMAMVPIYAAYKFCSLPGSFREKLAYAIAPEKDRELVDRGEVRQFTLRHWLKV
AT1 (h), sequence (P30556 whole entry): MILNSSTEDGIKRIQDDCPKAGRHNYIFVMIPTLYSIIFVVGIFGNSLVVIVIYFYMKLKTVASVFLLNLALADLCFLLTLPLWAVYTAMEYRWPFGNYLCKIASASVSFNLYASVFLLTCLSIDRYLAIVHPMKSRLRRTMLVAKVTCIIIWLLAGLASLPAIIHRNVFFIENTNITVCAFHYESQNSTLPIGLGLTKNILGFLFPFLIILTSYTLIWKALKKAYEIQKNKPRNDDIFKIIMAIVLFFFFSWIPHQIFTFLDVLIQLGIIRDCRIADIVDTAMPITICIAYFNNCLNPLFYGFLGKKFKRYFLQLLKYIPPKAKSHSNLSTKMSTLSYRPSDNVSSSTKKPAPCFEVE
β2 (h), sequence (P07550 whole entry): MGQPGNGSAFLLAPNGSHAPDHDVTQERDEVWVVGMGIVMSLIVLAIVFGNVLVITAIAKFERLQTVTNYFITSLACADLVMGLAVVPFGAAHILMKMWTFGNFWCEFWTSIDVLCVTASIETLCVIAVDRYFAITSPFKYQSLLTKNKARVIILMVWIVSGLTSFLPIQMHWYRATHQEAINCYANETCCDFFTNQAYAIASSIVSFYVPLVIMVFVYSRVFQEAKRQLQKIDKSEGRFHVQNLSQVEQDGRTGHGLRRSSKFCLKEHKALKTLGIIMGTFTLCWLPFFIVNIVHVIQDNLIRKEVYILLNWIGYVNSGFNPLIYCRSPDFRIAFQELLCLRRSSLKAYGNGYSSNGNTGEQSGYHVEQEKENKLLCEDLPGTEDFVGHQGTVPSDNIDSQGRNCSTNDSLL
CCK2 (CCKB) (h), sequence (P32239 whole entry): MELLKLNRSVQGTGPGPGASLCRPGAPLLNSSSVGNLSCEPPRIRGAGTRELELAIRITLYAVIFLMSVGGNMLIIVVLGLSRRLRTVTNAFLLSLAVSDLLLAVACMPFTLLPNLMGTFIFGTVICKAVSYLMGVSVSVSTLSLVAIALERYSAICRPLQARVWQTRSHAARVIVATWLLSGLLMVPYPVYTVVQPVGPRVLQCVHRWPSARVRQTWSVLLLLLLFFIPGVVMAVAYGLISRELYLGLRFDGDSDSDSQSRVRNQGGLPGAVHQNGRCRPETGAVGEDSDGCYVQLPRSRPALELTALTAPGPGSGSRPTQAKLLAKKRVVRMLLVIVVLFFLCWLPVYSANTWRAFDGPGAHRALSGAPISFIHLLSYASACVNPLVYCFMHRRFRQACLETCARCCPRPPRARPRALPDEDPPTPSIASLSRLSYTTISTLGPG
A2A (h), sequence (P29274 whole entry): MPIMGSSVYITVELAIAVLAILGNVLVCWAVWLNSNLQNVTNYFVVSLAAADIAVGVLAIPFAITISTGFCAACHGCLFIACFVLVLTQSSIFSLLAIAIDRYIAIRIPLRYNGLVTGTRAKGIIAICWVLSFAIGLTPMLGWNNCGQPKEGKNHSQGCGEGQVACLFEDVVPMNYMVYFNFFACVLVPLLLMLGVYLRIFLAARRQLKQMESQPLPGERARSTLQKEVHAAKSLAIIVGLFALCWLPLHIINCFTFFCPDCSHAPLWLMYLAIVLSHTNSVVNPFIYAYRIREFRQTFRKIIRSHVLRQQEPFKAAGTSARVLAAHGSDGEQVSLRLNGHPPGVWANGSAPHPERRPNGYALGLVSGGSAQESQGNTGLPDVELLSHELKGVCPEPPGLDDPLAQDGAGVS

Question: What does the source list for `CNC(=O)c1ccc(N2C(=S)N(c3ccc(C#N)c(C(F)(F)F)c3)C(=O)[C@]23CCOC3)cc1F` [(R)-1, 4-[(R)-3-(4-cyano-3-trifluoromethyl-phenyl)-4-oxo-2-thioxo-7-oxa-1,3-diaza-spiro[4.4]non-1-yl]-2-fluoro-N-methyl-benzamide]?
Answer: inhibition at 10 µM [1]: 8.1%; inhibition at 10 µM [2]: -8%; inhibition at 10 µM [3]: 0.5%; inhibition at 10 µM [4]: -6.2%; inhibition at 10 µM [5]: 9.1%; inhibition at 10 µM [6]: -2.5%; inhibition at 10 µM [7]: -4.7%; % Inhibition [8]: 2.0%; % Inhibition [9]: 10.1%; inhibition at 10 µM [10]: 15.9%; % Inhibition [11]: −8.9%; % Inhibition [12]: 19.3%; inhibition at 10 µM [13]: -19.2%; % Inhibition [14]: 28.0%; % Inhibition [15]: 9.8%; % Inhibition [16]: 42.4%; inhibition at 10 µM [17]: -0.3%; AR antagonistic activity (in words) [18]: even greater AR antagonistic activity; fold more efficient than III in inhibiting DHT-induced PSA expression [18]: around 1.9 fold; fold more efficient than Ia in inhibiting DHT-induced PSA expression [18]: around 1.5 fold; fold more potent than (S)-stereoisomer (S)-1 [18]: more than 10 fold; Ki ([18]; read-out: Ki, inhibition of DHT-induced PSA expression): 0.02 µM; IC50 ([19]; rat AR ligand-binding domain, fluorescence polarization (FIG. 3)): 7.9 µM; fold more efficient binding than Ia ([19]; versus Ia): around 2.1 fold

Reference: patent US9073874B2, “Cyclic N,N′-diarylthioureas and N,N′-diarylureas-androgen receptor antagonists, anticancer agent, method for preparation and use thereof” (priority 2010, dated 2015)
